# Reference: PubChem BioAssay (NCI)
# Values joined by “and” are separate entries in the source; they are usually repeats but may differ in a detail not shown here. Identical values can stand only once.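 48-hour exposure; five concentrations; linearly interpolated endpoints. GI50 = concentration required for 50% inhibition of growth. At the TGI there is no net growth.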
# Tests used:
# Experiment in all cases: growth of human tumour cells (NCI), 48 h
# SK-MEL-2 melanoma = test system: SK-MEL-2 melanoma
# DU-145 prostate = test system: DU-145 prostate
# OVCAR-3 ovarian = test system: OVCAR-3 ovarian
# SW-620 colon = test system: SW-620 colon
# HL-60(TB) leukemia = test system: HL-60(TB) leukemia
# SF-268 CNS = test system: SF-268 CNS
# SK-MEL-28 melanoma = test system: SK-MEL-28 melanoma
# MOLT-4 leukemia = test system: MOLT-4 leukemia
# HOP-92 NSCLC = test system: HOP-92 NSCLC
# HCT-15 colon = test system: HCT-15 colon
# IGROV1 ovarian = test system: IGROV1 ovarian
# A549 NSCLC = test system: A549 NSCLC
# LXFL 529 NSCLC = test system: LXFL 529 NSCLC
# EKVX NSCLC = test system: EKVX NSCLC
# A498 renal = test system: A498 renal
# OVCAR-8 ovarian = test system: OVCAR-8 ovarian
# BT-549 breast = test system: BT-549 breast
# HCC-2998 colon = test system: HCC-2998 colon
# NCI-H226 lung = test system: NCI-H226 lung
# HCT-116 colon = test system: HCT-116 colon
# MDA-MB-435 = test system: MDA-MB-435
# RPMI-8226 leukemia = test system: RPMI-8226 leukemia
# MALME-3M melanoma = test system: MALME-3M melanoma
# HOP-62 NSCLC = test system: HOP-62 NSCLC
# MCF7 breast = test system: MCF7 breast
# 786-0 renal = test system: 786-0 renal
# NCI-H460 lung = test system: NCI-H460 lung
# SF-295 CNS = test system: SF-295 CNS
# SNB-78 CNS = test system: SNB-78 CNS
# LOX IMVI melanoma = test system: LOX IMVI melanoma
# CAKI-1 renal = test system: CAKI-1 renal
# KM12 colon = test system: KM12 colon
# DLD-1 colon = test system: DLD-1 colon
# K-562 leukemia = test system: K-562 leukemia
# ACHN renal = test system: ACHN renal
# U251 CNS = test system: U251 CNS
# NCI/ADR-RES ovarian = test system: NCI/ADR-RES ovarian
# NCI-H522 lung = test system: NCI-H522 lung
# HT29 colon = test system: HT29 colon
# NCI-H23 lung = test system: NCI-H23 lung
# DMS 273 small cell lung = test system: DMS 273 small cell lung
# TK-10 renal = test system: TK-10 renal
# SK-OV-3 ovarian = test system: SK-OV-3 ovarian
# CCRF-CEM leukemia = test system: CCRF-CEM leukemia
# M14 melanoma = test system: M14 melanoma
# RXF 393 renal = test system: RXF 393 renal
# HS 578T breast = test system: HS 578T breast
# SN12K1 renal = test system: SN12K1 renal
# SNB-19 CNS = test system: SNB-19 CNS
# MDA-MB-231 breast = test system: MDA-MB-231 breast
# SR leukemia = test system: SR leukemia
# SF-539 CNS = test system: SF-539 CNS
# OVCAR-4 ovarian = test system: OVCAR-4 ovarian
# SN12C renal = test system: SN12C renal
# XF 498 CNS = test system: XF 498 CNS
# UACC-257 melanoma = test system: UACC-257 melanoma
# T-47D breast = test system: T-47D breast
# SK-MEL-5 melanoma = test system: SK-MEL-5 melanoma
# UO-31 renal = test system: UO-31 renal
# OVCAR-5 ovarian = test system: OVCAR-5 ovarian
# PC-3 prostate = test system: PC-3 prostate
# KM20L2 colon = test system: KM20L2 colon
# HOP-18 NSCLC = test system: HOP-18 NSCLC
# MDA-N = test system: MDA-N
# COLO 205 colon = test system: COLO 205 colon
# SNB-75 CNS = test system: SNB-75 CNS
smiles,measurement,setting,value
C#CCN1CCN(C(=S)N/N=C(\C)c2ccccn2)CC1,GI50,SK-MEL-2 melanoma,2.4 µM
same,TGI,SK-MEL-2 melanoma,5.41 µM and 4.64 µM
same,GI50,DU-145 prostate,1.19 µM
same,TGI,DU-145 prostate,4.74 µM and 6.36 µM
same,GI50,OVCAR-3 ovarian,0.00448 µM
same,TGI,OVCAR-3 ovarian,1.4 µM and 1.2 µM
same,TGI,SW-620 colon,7.3 µM and 4.27 µM
same,GI50,HL-60(TB) leukemia,0.00195 µM
same,TGI,HL-60(TB) leukemia,0.00497 µM and 0.0116 µM
same,TGI,SF-268 CNS,16.5 µM
same,GI50,SK-MEL-28 melanoma,2.09 µM
same,TGI,SK-MEL-28 melanoma,8.06 µM and 7.04 µM
same,GI50,MOLT-4 leukemia,0.136 µM
same,TGI,MOLT-4 leukemia,2.28 µM
same,GI50,HOP-92 NSCLC,3.43 µM
same,TGI,HOP-92 NSCLC,5.13 µM and 5.16 µM
same,GI50,HCT-15 colon,0.019 µM
same,TGI,HCT-15 colon,4.19 µM
same,GI50,IGROV1 ovarian,0.00303 µM
same,TGI,IGROV1 ovarian,3.3 µM
same,GI50,A549 NSCLC,0.273 µM
same,TGI,A549 NSCLC,8.09 µM and 2.16 µM
same,TGI,LXFL 529 NSCLC,18.2 µM
same,GI50,EKVX NSCLC,0.471 µM
same,TGI,EKVX NSCLC,3.52 µM and 6.91 µM
same,GI50,A498 renal,3.31 µM
same,TGI,A498 renal,5.47 µM and 5.21 µM
same,GI50,OVCAR-8 ovarian,0.0131 µM
same,TGI,OVCAR-8 ovarian,3.5 µM and 3.46 µM
same,TGI,BT-549 breast,3.29 µM and 3.25 µM
same,TGI,HCC-2998 colon,4.38 µM
same,TGI,NCI-H226 lung,4.66 µM
same,TGI,HCT-116 colon,1.22 µM
same,TGI,MDA-MB-435,3.39 µM and 4.03 µM
same,GI50,RPMI-8226 leukemia,0.00287 µM
same,GI50,MALME-3M melanoma,0.496 µM
same,TGI,MALME-3M melanoma,5.76 µM and 4.6 µM
same,GI50,HOP-62 NSCLC,0.124 µM
same,TGI,HOP-62 NSCLC,5.89 µM
same,GI50,MCF7 breast,< 0.001 µM
same,TGI,MCF7 breast,2.73 µM and 2.9 µM
same,GI50,786-0 renal,0.243 µM
same,TGI,786-0 renal,4.62 µM and 4.87 µM
same,TGI,NCI-H460 lung,4.17 µM and 2.75 µM
same,GI50,SF-295 CNS,2.11 µM
same,TGI,SF-295 CNS,7.91 µM and 4.8 µM
same,TGI,SNB-78 CNS,21.7 µM
same,GI50,LOX IMVI melanoma,1.6 µM
same,TGI,LOX IMVI melanoma,6.8 µM
same,GI50,CAKI-1 renal,0.785 µM
same,TGI,CAKI-1 renal,12.8 µM
same,GI50,KM12 colon,0.4 µM
same,TGI,KM12 colon,4.6 µM and 6.33 µM
same,GI50,DLD-1 colon,0.00155 µM
same,TGI,DLD-1 colon,6.58 µM
same,GI50,K-562 leukemia,0.00334 µM
same,TGI,K-562 leukemia,14 µM
same,GI50,ACHN renal,0.0578 µM
same,TGI,ACHN renal,4.41 µM and 6.2 µM
same,GI50,U251 CNS,0.0126 µM
same,TGI,U251 CNS,4.45 µM
same,GI50,NCI/ADR-RES ovarian,0.0304 µM
same,TGI,NCI/ADR-RES ovarian,1.68 µM and 1.56 µM
same,GI50,NCI-H522 lung,< 0.0292 µM
same,TGI,NCI-H522 lung,6.52 µM and 2.27 µM
same,GI50,HT29 colon,0.0028 µM
same,TGI,HT29 colon,3.74 µM and 8.33 µM
same,GI50,NCI-H23 lung,0.00567 µM
same,TGI,NCI-H23 lung,3.99 µM
same,GI50,DMS 273 small cell lung,0.0092 µM
same,TGI,DMS 273 small cell lung,4.57 µM
same,GI50,TK-10 renal,1.58 µM
same,TGI,TK-10 renal,5.5 µM and 6.36 µM
same,GI50,SK-OV-3 ovarian,1.57 µM
same,TGI,SK-OV-3 ovarian,2.91 µM and 5.09 µM
same,TGI,CCRF-CEM leukemia,2.14 µM
same,GI50,M14 melanoma,0.0781 µM
same,TGI,M14 melanoma,6.03 µM and 3.32 µM
same,GI50,RXF 393 renal,3.95 µM
same,TGI,RXF 393 renal,5.46 µM and 3.48 µM
same,GI50,HS 578T breast,1.94 µM
same,TGI,HS 578T breast,6.34 µM and 6.02 µM
same,TGI,SN12K1 renal,2.22 µM
same,GI50,SNB-19 CNS,4.53 µM
same,TGI,SNB-19 CNS,17.2 µM
same,TGI,MDA-MB-231 breast,3.54 µM and 5.04 µM
same,TGI,SR leukemia,2.36 µM
same,TGI,SF-539 CNS,5.78 µM and 4.56 µM
same,GI50,OVCAR-4 ovarian,2.73 µM
same,TGI,OVCAR-4 ovarian,4.74 µM and 3.84 µM
same,GI50,SN12C renal,2.39 µM
same,TGI,SN12C renal,11.4 µM
same,TGI,XF 498 CNS,2.72 µM
same,GI50,UACC-257 melanoma,0.00558 µM
same,TGI,UACC-257 melanoma,2.72 µM and 2.53 µM
same,TGI,T-47D breast,3.6 µM and 4.06 µM
same,TGI,SK-MEL-5 melanoma,5.05 µM and 2.86 µM
same,GI50,UO-31 renal,2.61 µM
same,TGI,UO-31 renal,4.56 µM and 3.77 µM
same,GI50,OVCAR-5 ovarian,0.14 µM
same,TGI,OVCAR-5 ovarian,4.65 µM and 3.11 µM
same,GI50,PC-3 prostate,0.0121 µM
same,TGI,PC-3 prostate,2.48 µM and 1.45 µM
same,GI50,KM20L2 colon,< 0.001 µM
same,TGI,KM20L2 colon,15 µM
same,TGI,HOP-18 NSCLC,10.6 µM
same,TGI,MDA-N,3.76 µM and 8.58 µM
same,GI50,COLO 205 colon,0.00362 µM
same,TGI,COLO 205 colon,2.3 µM and 0.915 µM
same,TGI,SNB-75 CNS,6.35 µM and 12.7 µM
